Laboratory results from patent publication US6495133B1, “Gliocladium roseum strains useful for the control of fungal pathogens in plants” (priority 1998, dated 2002).

Assays:
Mycosphaerella pinodes = assay: Control of seed-borne phase of mycosphaerella blight in field pea, field experiments; type: in vivo; settings: for increased emergence by / increased yield by: average of two cultivars
Rhizoctonia solani = assay: Control of rhizoctonia root rot, growth room experiments; type: in vivo
[1] = Healthy-looking seed (HL), 1995, AC Tamor
[2] = Healthy-looking seed (HL), 1995, Radley
[3] = Healthy-looking seed (HL), 1996, AC Tamor
[4] = Healthy-looking seed (HL), 1996, Radley
[5] = Visibly poor seed (VP), 1995, AC Tamor
[6] = Visibly poor seed (VP), 1995, Radley
[7] = Visibly poor seed (VP), 1996, AC Tamor
[8] = Visibly poor seed (VP), 1996, Radley
[9] = Brussel Sprouts (cv. Long Island)
[10] = Cauliflower (cv. Early Snowball)
[11] = Egg Plant (cv. Early Long Purple)

`CN(C)C(=S)SSC(=S)N(C)C` [Thiram, thiram] was tested, and the “increased emergence by” value (Mycosphaerella pinodes; HL seeds, 1995) was 108%, the “increased yield by” value (Mycosphaerella pinodes; HL seeds, 1995) was 106% and the “decreased yield by” value (Mycosphaerella pinodes; HL seeds, 1996) was 6%. For the same compound, the “increased emergence by” value (Mycosphaerella pinodes; HL seeds, 1996) was 38%, the Emergence (Mycosphaerella pinodes; [1]) was 75.9 a and the Yield (Mycosphaerella pinodes; [1]) was 2892 a. It also gave an Emergence (Mycosphaerella pinodes; [2]) of 91.0 a, a Yield (Mycosphaerella pinodes; [2]) of 459 a and an Emergence (Mycosphaerella pinodes; [3]) of 77.9 a. It also gave a Yield (Mycosphaerella pinodes; [3]) of 7381 a, an Emergence (Mycosphaerella pinodes; [4]) of 89.1 a and a Yield (Mycosphaerella pinodes; [4]) of 3114 b. The “increased emergence by” value (Mycosphaerella pinodes; VP seeds, 1995) was 293%, the “increased yield by” value (Mycosphaerella pinodes; VP seeds, 1995) was 148% and the “increased emergence by” value (Mycosphaerella pinodes; VP seeds, 1996) was 55%. For the same compound, the “increased yield by” value (Mycosphaerella pinodes; VP seeds, 1996) was 4%, the Emergence (Mycosphaerella pinodes; [5]) was 51.0 a and the Yield (Mycosphaerella pinodes; [5]) was 260 a. For the same compound, the Emergence (Mycosphaerella pinodes; [6]) was 29.1 a, the Yield (Mycosphaerella pinodes; [6]) was 643 a and the Emergence (Mycosphaerella pinodes; [7]) was 49.5 a. The Yield (Mycosphaerella pinodes; [7]) was 7228 a, the Emergence (Mycosphaerella pinodes; [8]) was 57.5 a and the Yield (Mycosphaerella pinodes; [8]) was 4410 a. The Dry wt. (Rhizoctonia solani; Broccoli (cv. Green Sprouting)) was 0.01 a g/plant, the Emergence (Rhizoctonia solani; Broccoli (cv. Green Sprouting)) was 34.0 a % and the Fresh wt. (Rhizoctonia solani; Broccoli (cv. Green Sprouting)) was 0.1 a g/plant. For the same compound, the Root/foot rot severity (Rhizoctonia solani; Broccoli (cv. Green Sprouting)) was 5.1 ab 0-9, the Dry wt. (Rhizoctonia solani; [9]) was 0.02 a g/plant and the Emergence (Rhizoctonia solani; [9]) was 19.5 b %. It also gave a Fresh wt. (Rhizoctonia solani; [9]) of 0.2 ab g/plant, a Root/foot rot severity (Rhizoctonia solani; [9]) of 2.8 a 0-9 and a Dry wt. (Rhizoctonia solani; Cabbage (cv. Golden Acre)) of 0.01 a g/plant. It also gave an Emergence (Rhizoctonia solani; Cabbage (cv. Golden Acre)) of 59.5 a %, a Fresh wt. (Rhizoctonia solani; Cabbage (cv. Golden Acre)) of 0.2 a g/plant and a Root/foot rot severity (Rhizoctonia solani; Cabbage (cv. Golden Acre)) of 2.9 b 0-9. It also gave a Dry wt. (Rhizoctonia solani; [10]) of 0.01 a g/plant, an Emergence (Rhizoctonia solani; [10]) of 11.5 b % and a Fresh wt. (Rhizoctonia solani; [10]) of 0.1 a g/plant. It also gave a Root/foot rot severity (Rhizoctonia solani; [10]) of 4.0 a 0-9, a Dry wt. (Rhizoctonia solani; Cucumber (cv. Imp. Long Green)) of 0.06 a g/plant and an Emergence (Rhizoctonia solani; Cucumber (cv. Imp. Long Green)) of 49.0 b %. The Fresh wt. (Rhizoctonia solani; Cucumber (cv. Imp. Long Green)) was 0.5 a g/plant, the Root/foot rot severity (Rhizoctonia solani; Cucumber (cv. Imp. Long Green)) was 2.2 b 0-9 and the Dry wt. (Rhizoctonia solani; [11]) was 0.01 a g/plant. The Emergence (Rhizoctonia solani; [11]) was 79.3 a %, the Fresh wt. (Rhizoctonia solani; [11]) was 0.1 a g/plant and the Root/foot rot severity (Rhizoctonia solani; [11]) was 1.9 a 0-9. The Dry wt. (Rhizoctonia solani; Field pea (cv. Radley)) was 0.27 a g/plant, the Emergence (Rhizoctonia solani; Field pea (cv. Radley)) was 55.6 a % and the Fresh wt. (Rhizoctonia solani; Field pea (cv. Radley)) was 2.4 a g/plant. It also gave a Root/foot rot severity (Rhizoctonia solani; Field pea (cv. Radley)) of 3.4 a 0-9, a Dry wt. (Rhizoctonia solani; Garden Pea (cv. Green Arrow)) of 0.15 a g/plant and an Emergence (Rhizoctonia solani; Garden Pea (cv. Green Arrow)) of 89.2 a %. For the same compound, the Fresh wt. (Rhizoctonia solani; Garden Pea (cv. Green Arrow)) was 1.3 a g/plant, the Root/foot rot severity (Rhizoctonia solani; Garden Pea (cv. Green Arrow)) was 2.1 b 0-9 and the Dry wt. (Rhizoctonia solani; Marigold (cv. Lemondrop)) was 0.06 a g/plant. For the same compound, the Emergence (Rhizoctonia solani; Marigold (cv. Lemondrop)) was 75.2 a %, the Fresh wt. (Rhizoctonia solani; Marigold (cv. Lemondrop)) was 0.5 a g/plant and the Root/foot rot severity (Rhizoctonia solani; Marigold (cv. Lemondrop)) was 2.1 a 0-9. It also gave a Dry wt. (Rhizoctonia solani; Pepper (cv. California Wonder)) of 0.01 a g/plant, an Emergence (Rhizoctonia solani; Pepper (cv. California Wonder)) of 70.5 b % and a Fresh wt. (Rhizoctonia solani; Pepper (cv. California Wonder)) of 0.1 a g/plant. For the same compound, the Root/foot rot severity (Rhizoctonia solani; Pepper (cv. California Wonder)) was 1.3 a 0-9, the Dry wt. (Rhizoctonia solani; Sugar beet (cv. US H2O)) was 0.29 a g/plant and the Emergence (Rhizoctonia solani; Sugar beet (cv. US H2O)) was 57.5 a %. The Fresh wt. (Rhizoctonia solani; Sugar beet (cv. US H2O)) was 4.4 a g/plant, the Root/foot rot severity (Rhizoctonia solani; Sugar beet (cv. US H2O)) was 1.6 b 0-9 and the Dry wt. (Rhizoctonia solani; Table beet (cv. Ruby Queen)) was 0.01 a g/plant. For the same compound, the Emergence (Rhizoctonia solani; Table beet (cv. Ruby Queen)) was 78.5 a %, the Fresh wt. (Rhizoctonia solani; Table beet (cv. Ruby Queen)) was 0.1 a g/plant and the Root/foot rot severity (Rhizoctonia solani; Table beet (cv. Ruby Queen)) was 2.3 b 0-9. It also gave a Dry wt. (Rhizoctonia solani; Tomato (cv. Bush Beefsteak)) of 0.01 a g/plant, an Emergence (Rhizoctonia solani; Tomato (cv. Bush Beefsteak)) of 87.8 a % and a Fresh wt. (Rhizoctonia solani; Tomato (cv. Bush Beefsteak)) of 0.1 a g/plant. The Root/foot rot severity (Rhizoctonia solani; Tomato (cv. Bush Beefsteak)) was 1.5 a 0-9.
